Test results: paper PMC7833800 (Journal of Virological Methods, 2020)
Like-named read-outs stand apart in the source and are kept apart here.

Target: SARS-CoV RTC (nsp12 in complex with nsp7L8) (Severe acute respiratory syndrome coronavirus, UniProt P0C6X7)
Assay: biochemical

Compound | IC50 [µM] | IC50 (IC50) [µM]
O=c1ccn([C@@H]2O[C@H](COP(=O)(O)OP(=O)(O)OP(=O)(O)O)C[C@H]2O)c(=O)[nH]1 [3’dUTP] | 6.7 | 
O=c1cc(-c2ccc(O)cc2)oc2cc(O)cc(O)c12 [Apigenin] |  | 96
O=c1cc(-c2ccc(Oc3c(O)cc4oc(-c5ccc(O)cc5)cc(=O)c4c3O)cc2)oc2cc(O)cc(O)c12 [Hinokiflavone] |  | 0.95
